Experimental data from publication PMC5218480 (PLoS ONE, 2017).

System: MV-4-11 cells
Assay: Gene expression microarray analysis (Affymetrix PrimeView) and GSEA
Type: cell-based, human
Design: RFU PODN (11730768_x_at) / Fold change /veh PODN (11730768_x_at) / RFU LINC00158 (11744669_a_at) / Fold change /veh LINC00158 (11744669_a_at) / RFU DUSP10 (11751237_a_at) / Fold change /veh DUSP10 (11751237_a_at) / RFU ID3 (11757404_x_at) / Fold change /veh ID3 (11757404_x_at) / RFU PLEKHG5 (11737974_s_at) / Fold change /veh PLEKHG5 (11737974_s_at) / RFU LRRC4B (11730491_at) / Fold change /veh LRRC4B (11730491_at) / RFU GIMAP4 (11747438_a_at) / Fold change /veh GIMAP4 (11747438_a_at) / RFU KRT8 (11758183_x_at) / Fold change /veh KRT8 (11758183_x_at) / RFU CNN1 (11734310_a_at) / Fold change /veh CNN1 (11734310_a_at) / RFU VPS37D (11726825_at) / Fold change /veh VPS37D (11726825_at) / RFU C10orf10 (11716522_x_at) / Fold change /veh C10orf10 (11716522_x_at) / RFU KIR2DL2 /// KIR2DL4 /// KIR2DL5A /// KIR2DL5B /// KIR2DS1 /// KIR2DS2 /// KIR2DS3 /// KIR2DS4 /// KIR3DL3 /// KIR3DL3 /// KIR3DS1 (11738374_at) / Fold change /veh KIR2DL2 /// KIR2DL4 /// KIR2DL5A /// KIR2DL5B /// KIR2DS1 /// KIR2DS2 /// KIR2DS3 /// KIR2DS4 /// KIR3DL3 /// KIR3DL3 /// KIR3DS1 (11738374_at) / RFU C1QL1 (11718748_at) / Fold change /veh C1QL1 (11718748_at) / RFU TMPRSS4 (11747572_a_at) / Fold change /veh TMPRSS4 (11747572_a_at) / RFU HAMP (11756126_x_at) / Fold change /veh HAMP (11756126_x_at) / RFU RNFT2 (11725882_a_at) / Fold change /veh RNFT2 (11725882_a_at) / RFU NR4A2 (11747474_a_at) / Fold change /veh NR4A2 (11747474_a_at) / RFU ABCC12 (11746883_a_at) / Fold change /veh ABCC12 (11746883_a_at) / RFU TMEM136 (11760407_x_at) / Fold change /veh TMEM136 (11760407_x_at) / RFU CLDN22 /// WWC2 (11732394_at) / Fold change /veh CLDN22 /// WWC2 (11732394_at) / RFU HLA-DPB1 (11760878_x_at) / Fold change /veh HLA-DPB1 (11760878_x_at) / RFU SPINT1 (11716480_a_at) / Fold change /veh SPINT1 (11716480_a_at) / RFU GAP43 (11754022_s_at) / Fold change /veh GAP43 (11754022_s_at) / RFU A4GNT (11735810_at) / Fold change /veh A4GNT (11735810_at) / RFU PRB3 (11715151_x_at) / Fold change /veh PRB3 (11715151_x_at) / RFU TUBB4B (11761932_at) / Fold change /veh TUBB4B (11761932_at) / RFU CAPN14 (11732068_a_at) / Fold change /veh CAPN14 (11732068_a_at) / RFU TMCC2 (11721928_a_at) / Fold change /veh TMCC2 (11721928_a_at) / RFU IRGQ (11745062_a_at) / Fold change /veh IRGQ (11745062_a_at) / RFU FAM174B (11720279_a_at) / Fold change /veh FAM174B (11720279_a_at) / RFU TMPRSS4 (11748680_a_at) / Fold change /veh TMPRSS4 (11748680_a_at) / RFU FAM212B (11763350_a_at) / Fold change /veh FAM212B (11763350_a_at) / RFU PLEKHG5 (11743358_a_at) / Fold change /veh PLEKHG5 (11743358_a_at) / RFU ZSCAN30 (11745921_a_at) / Fold change /veh ZSCAN30 (11745921_a_at) / RFU CMKLR1 (11741424_a_at) / Fold change /veh CMKLR1 (11741424_a_at) / RFU LOC101060620 /// MAPK8IP1 (11723275_at) / Fold change /veh LOC101060620 /// MAPK8IP1 (11723275_at) / RFU SPTSSB (11747773_x_at) / Fold change /veh SPTSSB (11747773_x_at) / RFU PRSS12 (11739890_at) / Fold change /veh PRSS12 (11739890_at) / RFU BIN1 (11741810_x_at) / Fold change /veh BIN1 (11741810_x_at) / RFU WNT11 (11732464_a_at) / Fold change /veh WNT11 (11732464_a_at) / RFU C10orf10 (11716521_a_at) / Fold change /veh C10orf10 (11716521_a_at) / RFU C5orf56 (11738089_at) / Fold change /veh C5orf56 (11738089_at) / RFU CYB561 (11721691_x_at) / Fold change /veh CYB561 (11721691_x_at) / RFU ANKRD19P (11752326_a_at) / Fold change /veh ANKRD19P (11752326_a_at) / RFU OR2T12 /// OR2T33 /// OR2T8 (11738714_s_at) / Fold change /veh OR2T12 /// OR2T33 /// OR2T8 (11738714_s_at) / RFU VCAN (11748164_a_at) / Fold change /veh VCAN (11748164_a_at) / RFU JSRP1 (11732532_at) / Fold change /veh JSRP1 (11732532_at) / RFU KRTAP10-11 (11738290_x_at) / Fold change /veh KRTAP10-11 (11738290_x_at) / RFU MYO3A (11730013_a_at) / Fold change /veh MYO3A (11730013_a_at) / RFU EBF3 (11725865_a_at) / Fold change /veh EBF3 (11725865_a_at) / RFU CAMK2N1 (11719241_x_at) / Fold change /veh CAMK2N1 (11719241_x_at) / RFU C5orf56 (11738088_a_at) / Fold change /veh C5orf56 (11738088_a_at) / RFU OLFML3 (11715873_a_at) / Fold change /veh OLFML3 (11715873_a_at) / RFU LOC100653217 /// NTM (11731650_a_at) / Fold change /veh LOC100653217 /// NTM (11731650_a_at) / RFU MAPK11 (11762145_a_at) / Fold change /veh MAPK11 (11762145_a_at) / RFU FIZ1 (11724087_x_at) / Fold change /veh FIZ1 (11724087_x_at) / RFU OASL (11726364_x_at) / Fold change /veh OASL (11726364_x_at) / RFU SOX15 (11748057_x_at) / Fold change /veh SOX15 (11748057_x_at) / RFU CD79A (11719716_a_at) / Fold change /veh CD79A (11719716_a_at) / RFU HIST1H1D (11736915_at) / Fold change /veh HIST1H1D (11736915_at) / RFU CASKIN2 (11723855_a_at) / Fold change /veh CASKIN2 (11723855_a_at) / RFU LOC730098 (11760151_x_at) / Fold change /veh LOC730098 (11760151_x_at) / RFU OR4N2 (11742367_at) / Fold change /veh OR4N2 (11742367_at) / RFU PRRT2 (11749266_a_at) / Fold change /veh PRRT2 (11749266_a_at) / RFU SNX32 (11753110_a_at) / Fold change /veh SNX32 (11753110_a_at) / RFU CDHR5 (11726645_a_at) / Fold change /veh CDHR5 (11726645_a_at) / RFU RCAN1 (11760418_a_at) / Fold change /veh RCAN1 (11760418_a_at) / RFU FAM167A (11723789_a_at) / Fold change /veh FAM167A (11723789_a_at) / RFU FAM26E (11764081_at) / Fold change /veh FAM26E (11764081_at) / RFU ISYNA1 (11749810_s_at) / Fold change /veh ISYNA1 (11749810_s_at) / RFU ACY1 (11761880_at) / Fold change /veh ACY1 (11761880_at) / RFU 11764098_at / Fold change /veh 11764098_at / RFU SAMD14 (11745864_x_at) / Fold change /veh SAMD14 (11745864_x_at) / RFU NPB (11741838_a_at) / Fold change /veh NPB (11741838_a_at) / RFU TMPRSS6 (11731388_a_at) / Fold change /veh TMPRSS6 (11731388_a_at) / RFU KRTAP10-2 (11738614_at) / Fold change /veh KRTAP10-2 (11738614_at) / RFU ARHGAP8 /// PRR5-ARHGAP8 (11727945_x_at) / Fold change /veh ARHGAP8 /// PRR5-ARHGAP8 (11727945_x_at) / RFU KRTAP5-7 /// NADSYN1 (11734609_at) / Fold change /veh KRTAP5-7 /// NADSYN1 (11734609_at) / RFU RASL12 (11751679_a_at) / Fold change /veh RASL12 (11751679_a_at) / RFU CDKN2B (11736163_a_at) / Fold change /veh CDKN2B (11736163_a_at) / RFU PRF1 (11729649_at) / Fold change /veh PRF1 (11729649_at) / RFU, ZNF638 /// ZNF638-IT1 / Fold change vs veh, ZNF638 /// ZNF638-IT1 / RFU, PANK3 / Fold change vs veh, PANK3 / RFU, SH3YL1 / Fold change vs veh, SH3YL1 / RFU, ZEB2 / Fold change vs veh, ZEB2 / RFU, NRIP1 / Fold change vs veh, NRIP1 / RFU, PTTG1IP / Fold change vs veh, PTTG1IP / RFU, CAPN2 / Fold change vs veh, CAPN2 / RFU, MED14 / Fold change vs veh, MED14 / RFU, SNORA58 / Fold change vs veh, SNORA58 / RFU, C1orf63 / Fold change vs veh, C1orf63 / RFU, LRRFIP1 / Fold change vs veh, LRRFIP1 / RFU, NDUFAF7 / Fold change vs veh, NDUFAF7 / RFU, SLC12A2 / Fold change vs veh, SLC12A2 / RFU, IBTK / Fold change vs veh, IBTK / RFU, ESF1 / Fold change vs veh, ESF1 / Fold change vs veh, TMEM50B / RFU, TAOK1 / Fold change vs veh, TAOK1 / RFU, ACBD3 / Fold change vs veh, ACBD3 / RFU, TMA16 / Fold change vs veh, TMA16 / RFU, RWDD3 / Fold change vs veh, RWDD3 / RFU, BCAT1 / Fold change vs veh, BCAT1 / RFU, EDEM3 / Fold change vs veh, EDEM3 / RFU, TMEM33 / Fold change vs veh, TMEM33 / RFU, WDR75 / Fold change vs veh, WDR75 / RFU, AHCTF1 / Fold change vs veh, AHCTF1 / RFU, TFRC / Fold change vs veh, TFRC / RFU, ZDHHC17 / Fold change vs veh, ZDHHC17 / RFU, NOM1 / Fold change vs veh, NOM1 / RFU, ARL8B / Fold change vs veh, ARL8B / RFU, ZBTB11 / Fold change vs veh, ZBTB11 / RFU, TAMM41 / Fold change vs veh, TAMM41 / RFU, KIAA1704 /// LOC100996395 / Fold change vs veh, KIAA1704 /// LOC100996395 / RFU, ING1 / Fold change vs veh, ING1 / RFU, TRMT61B / Fold change vs veh, TRMT61B / RFU, FUBP3 / Fold change vs veh, FUBP3 / RFU, TP53 / Fold change vs veh, TP53 / RFU, TNKS2 / Fold change vs veh, TNKS2 / RFU, ZFP14 / Fold change vs veh, ZFP14 / RFU, ACTR2 / Fold change vs veh, ACTR2 / RFU, PPP3R1 / Fold change vs veh, PPP3R1 / RFU, PIK3R1 / Fold change vs veh, PIK3R1 / RFU, HNRNPA1 / Fold change vs veh, HNRNPA1 / RFU, RNF170 / Fold change vs veh, RNF170 / RFU, ZNF28 / Fold change vs veh, ZNF28 / RFU, RNGTT / Fold change vs veh, RNGTT / RFU, OGT / Fold change vs veh, OGT / RFU, BRD1 / Fold change vs veh, BRD1 / RFU, MARS / Fold change vs veh, MARS / RFU, ZNF655 / Fold change vs veh, ZNF655 / RFU, FAHD1 / Fold change vs veh, FAHD1 / RFU, BDP1 / Fold change vs veh, BDP1 / RFU, LRRCC1 / Fold change vs veh, LRRCC1 / RFU, ARID1A / Fold change vs veh, ARID1A / RFU, ZNF146 / Fold change vs veh, ZNF146 / RFU, ZNF330 / Fold change vs veh, ZNF330 / RFU, GPN3 / Fold change vs veh, GPN3 / RFU, C9orf123 / Fold change vs veh, C9orf123 / RFU, N4BP2L2 / Fold change vs veh, N4BP2L2 / RFU, ARFIP1 / Fold change vs veh, ARFIP1 / RFU, FAM179B / Fold change vs veh, FAM179B / RFU, BCL10 / Fold change vs veh, BCL10 / RFU, UHRF1BP1L / Fold change vs veh, UHRF1BP1L / RFU, BET1 / Fold change vs veh, BET1 / RFU, CNOT2 / Fold change vs veh, CNOT2 / RFU, ZNF268 / Fold change vs veh, ZNF268 / Fold change vs veh, ZNF507 / RFU, DGCR2 / Fold change vs veh, DGCR2 / RFU, WDSUB1 / Fold change vs veh, WDSUB1 / Fold change vs veh, HSP90B1 /// MIR3652 / RFU, ADSS / Fold change vs veh, ADSS / RFU, GK / Fold change vs veh, GK / RFU, ZNF148 / Fold change vs veh, ZNF148 / RFU, TAF9 / Fold change vs veh, TAF9 / RFU, SLC1A5 / Fold change vs veh, SLC1A5 / RFU, SLMO2 / Fold change vs veh, SLMO2 / RFU, ABCC4 / Fold change vs veh, ABCC4 / RFU, LOC101060439 /// RAP1B / Fold change vs veh, LOC101060439 /// RAP1B / RFU, RFX7 / Fold change vs veh, RFX7 / RFU, GTPBP10 / Fold change vs veh, GTPBP10 / RFU, CNEP1R1 / Fold change vs veh, CNEP1R1 / RFU, BIVM-ERCC5 /// ERCC5 / Fold change vs veh, BIVM-ERCC5 /// ERCC5 / RFU, ILF3 / Fold change vs veh, ILF3 / RFU 11762660_at / Fold change /veh 11762660_at / RFU VCAN (11757783_s_at) / Fold change /veh VCAN (11757783_s_at) / RFU DDX43 (11728927_at) / Fold change /veh DDX43 (11728927_at) / RFU KRT8 (11758188_x_at) / Fold change /veh KRT8 (11758188_x_at) / RFU NKD1 (11759106_at) / Fold change /veh NKD1 (11759106_at) / RFU SRD5A1 (11742802_a_at) / Fold change /veh SRD5A1 (11742802_a_at) / RFU TPSAB1 /// TPSB2 (11721975_s_at) / Fold change /veh TPSAB1 /// TPSB2 (11721975_s_at) / RFU GSTM3 (11746129_a_at) / Fold change /veh GSTM3 (11746129_a_at) / RFU IL23R (11737362_x_at) / Fold change /veh IL23R (11737362_x_at) / RFU TMEM51 (11727254_a_at) / Fold change /veh TMEM51 (11727254_a_at) / RFU PIWIL2 (11732686_x_at) / Fold change /veh PIWIL2 (11732686_x_at) / RFU ORM1 (11744905_x_at) / Fold change /veh ORM1 (11744905_x_at) / RFU CCDC152 (11743942_at) / Fold change /veh CCDC152 (11743942_at) / RFU ECM1 (11717891_a_at) / Fold change /veh ECM1 (11717891_a_at) / RFU IL23R (11748794_a_at) / Fold change /veh IL23R (11748794_a_at) / RFU TNFAIP8L3 (11732012_x_at) / Fold change /veh TNFAIP8L3 (11732012_x_at) / RFU MBOAT4 (11741988_at) / Fold change /veh MBOAT4 (11741988_at) / RFU 11764193_at / Fold change /veh 11764193_at / RFU TMEM53 (11763286_at) / Fold change /veh TMEM53 (11763286_at) / RFU MAGEB2 (11727129_at) / Fold change /veh MAGEB2 (11727129_at) / RFU TMEM200A (11744735_a_at) / Fold change /veh TMEM200A (11744735_a_at) / RFU CCDC152 (11751479_a_at) / Fold change /veh CCDC152 (11751479_a_at) / RFU FAM211A (11726209_a_at) / Fold change /veh FAM211A (11726209_a_at) / RFU RGS16 (11746705_a_at) / Fold change /veh RGS16 (11746705_a_at) / RFU VCAN (11755009_s_at) / Fold change /veh VCAN (11755009_s_at) / RFU RHOB (11743442_s_at) / Fold change /veh RHOB (11743442_s_at) / RFU RGS16 (11720943_a_at) / Fold change /veh RGS16 (11720943_a_at) / RFU RGS16 (11720944_at) / Fold change /veh RGS16 (11720944_at) / RFU, VPS4B / Fold change vs veh, VPS4B / RFU, CREB1 / Fold change vs veh, CREB1 / RFU, DNAJC13 / Fold change vs veh, DNAJC13 / RFU, GNAQ / Fold change vs veh, GNAQ / RFU, CDK5R1 / Fold change vs veh, CDK5R1 / RFU, ZRANB3 / Fold change vs veh, ZRANB3 / RFU, CUL4A / Fold change vs veh, CUL4A / RFU, CCNY / Fold change vs veh, CCNY / RFU, UFL1 / Fold change vs veh, UFL1 / RFU, COG3 / Fold change vs veh, COG3 / RFU, DIAPH2 / Fold change vs veh, DIAPH2 / RFU, SKA2 / Fold change vs veh, SKA2 / RFU, AFF3 / Fold change vs veh, AFF3 / RFU, LMF1 / Fold change vs veh, LMF1 / RFU, IPO11 / Fold change vs veh, IPO11 / RFU, DFFB / Fold change vs veh, DFFB / RFU, FOXP1 / Fold change vs veh, FOXP1 / RFU, CARD8 / Fold change vs veh, CARD8 / RFU, STRN3 / Fold change vs veh, STRN3 / RFU, ADK / Fold change vs veh, ADK / RFU, RASSF2 / Fold change vs veh, RASSF2 / RFU, WIPF1 / Fold change vs veh, WIPF1 / RFU, LARP1B / Fold change vs veh, LARP1B / RFU, RASA1 / Fold change vs veh, RASA1 / RFU, RB1 / Fold change vs veh, RB1 / RFU, PPFIA1 / Fold change vs veh, PPFIA1 / RFU, MAT2A / Fold change vs veh, MAT2A / RFU, CCT5 / Fold change vs veh, CCT5 / RFU, WDR92 / Fold change vs veh, WDR92 / RFU, CUX1 / Fold change vs veh, CUX1 / RFU, TTC7A / Fold change vs veh, TTC7A / RFU, TMEM135 / Fold change vs veh, TMEM135 / RFU, DEPTOR / Fold change vs veh, DEPTOR / RFU, CPM / Fold change vs veh, CPM / RFU, DNAJB6 / Fold change vs veh, DNAJB6 / RFU, CACNA2D3 / Fold change vs veh, CACNA2D3 / RFU, DTX4 / Fold change vs veh, DTX4 / RFU, TFCP2 / Fold change vs veh, TFCP2 / RFU, GMCL1 /// GMCL1P1 / Fold change vs veh, GMCL1 /// GMCL1P1 / RFU, AEBP2 / Fold change vs veh, AEBP2 / RFU, SNHG1 /// SNORD22 /// SNORD25 /// SNORD26 /// SNORD27 /// SNORD28 /// SNORD29 /// SNORD31 / Fold change vs veh, SNHG1 /// SNORD22 /// SNORD25 /// SNORD26 /// SNORD27 /// SNORD28 /// SNORD29 /// SNORD31 / Fold change (Aza/veh), C12orf56 (ProbeSet 11735607_a_at) / Fold change (ACY-1035/veh), C12orf56 (ProbeSet 11735607_a_at) / Fold change (Aza/veh), FGFR1OP (ProbeSet 11751329_s_at) / Fold change (ACY-1035/veh), FGFR1OP (ProbeSet 11751329_s_at) / Fold change (Aza/veh), VPS36 (ProbeSet 11739960_a_at) / Fold change (ACY-1035/veh), VPS36 (ProbeSet 11739960_a_at) / RFU SYPL1 (11715823_x_at) / Fold change /veh SYPL1 (11715823_x_at) / RFU IGFBP7 (11715501_s_at) / Fold change /veh IGFBP7 (11715501_s_at) / RFU REEP3 (11722064_at) / Fold change /veh REEP3 (11722064_at) / RFU IGLL1 (11728026_x_at) / Fold change /veh IGLL1 (11728026_x_at): dose or concentration left out as unconfirmed
Conditions: MV-4-11 cells, 48 hours

Nc1ncn([C@@H]2O[C@H](CO)[C@@H](O)[C@H]2O)c(=O)n1 [azacitidine]
Fold change /veh HAMP (11756126_x_at): 0.87
